Experimental data published in PMC6946680, “Modulation of brain cation-Cl^− cotransport via the SPAK kinase inhibitor ZT-1a” (Nature Communications, 2020).

Columns and labels:
Assay in all cases: Kinase profiling panel
Type in all cases: biochemical
WNK1 = system: WNK1
Procedure: (§1) Supplementary Table 2. ZT-1a kinase profiling data6.
(§2) ZT-1a was tested at 10 and 1 µM against a panel of 140 recombinant kinases in an enzymatic
(§3) activity-based assay performed by the International Centre for Kinase Profiling in the MRC
(§4) Protein Phosphorylation and Ubiquitylation Unit. Values represent % residual kinase activity

CK1δ = system: CK1δ
Procedure: as §1, §2, §3, §4

MAP4K5 = system: MAP4K5
Procedure: as §1, §2, §3, §4

MSK1 = system: MSK1
Procedure: as §1, §2, §3, §4

IRAK1 = system: IRAK1
Procedure: as §1, §2, §3, §4

SYK = system: SYK
Procedure: as §1, §2, §3, §4

MARK1 = system: MARK1
Procedure: as §1, §2, §3, §4

TTK = system: TTK
Procedure: as §1, §2, §3, §4

Aurora B = system: Aurora B
Procedure: as §1, §2, §3, §4

ABL = system: ABL
Procedure: as §1, §2, §3, §4

ULK1 = system: ULK1
Procedure: as §1, §2, §3, §4

Src = system: Src
Procedure: as §1, §2, §3, §4

TESK1 = system: TESK1
Procedure: as §1, §2, §3, §4

MARK4 = system: MARK4
Procedure: as §1, §2, §3, §4

RIPK2 = system: RIPK2
Procedure: as §1, §2, §3, §4

BTK = system: BTK
Procedure: as §1, §2, §3, §4

ERK5 = system: ERK5
Procedure: as §1, §2, §3, §4

MKK1 = system: MKK1
Procedure: as §1, §2, §3, §4

PKCz = system: PKCz
Procedure: as §1, §2, §3, §4

p38b MAPK = system: p38b MAPK
Procedure: as §1, §2, §3, §4

Lck = system: Lck
Procedure: as §1, §2, §3, §4

PKBa = system: PKBa
Procedure: as §1, §2, §3, §4

MNK1 = system: MNK1
Procedure: as §1, §2, §3, §4

MST2 = system: MST2
Procedure: as §1, §2, §3, §4

Aurora A = system: Aurora A
Procedure: as §1, §2, §3, §4

CAMKKb = system: CAMKKb
Procedure: as §1, §2, §3, §4

MAPKAP-K3 = system: MAPKAP-K3
Procedure: as §1, §2, §3, §4

MKK2 = system: MKK2
Procedure: as §1, §2, §3, §4

IRAK4 = system: IRAK4
Procedure: as §1, §2, §3, §4

DYRK3 = system: DYRK3
Procedure: as §1, §2, §3, §4

p38d MAPK = system: p38d MAPK
Procedure: as §1, §2, §3, §4

HIPK2 = system: HIPK2
Procedure: as §1, §2, §3, §4

EF2K = system: EF2K
Procedure: as §1, §2, §3, §4

EPH-B3 = system: EPH-B3
Procedure: as §1, §2, §3, §4

TBK1 = system: TBK1
Procedure: as §1, §2, §3, §4

VEG-FR = system: VEG-FR
Procedure: as §1, §2, §3, §4

IRR = system: IRR
Procedure: as §1, §2, §3, §4

MST4 = system: MST4
Procedure: as §1, §2, §3, §4

CHK2 = system: CHK2
Procedure: as §1, §2, §3, §4

OSR1 = system: OSR1
Procedure: as §1, §2, §3, §4

p38g MAPK = system: p38g MAPK
Procedure: as §1, §2, §3, §4

MARK2 = system: MARK2
Procedure: as §1, §2, §3, §4

PHK = system: PHK
Procedure: as §1, §2, §3, §4

DAPK1 = system: DAPK1
Procedure: as §1, §2, §3, §4

**Q.** Which results are given for `Cc1cc(C(C#N)c2ccc(Cl)cc2)c(Cl)cc1NC(=O)c1cc(Cl)ccc1O` (stereo not shown) [ZT-1a, 5-chloro-N-(5-chloro-4-((4-chlorophenyl)(cyano)methyl)-2-methylphenyl)-2-hydroxybenzamide]?
**A.** % residual kinase activity (WNK1; 1 µM): 125±17%; % residual kinase activity (WNK1; 10 µM): 122±35%; % residual kinase activity (CK1δ; 1 µM): 116±5%; % residual kinase activity (CK1δ; 10 µM): 114±9%; % residual kinase activity (MAP4K5; 1 µM): 95±28%; % residual kinase activity (MAP4K5; 10 µM): 76±9%; % residual kinase activity (MSK1; 1 µM): 114±6%; % residual kinase activity (MSK1; 10 µM): 112±14%; % residual kinase activity (IRAK1; 1 µM): 128±2%; % residual kinase activity (IRAK1; 10 µM): 95±7%; % residual kinase activity (SYK; 1 µM): 93±12%; % residual kinase activity (SYK; 10 µM): 93±1%; % residual kinase activity (MARK1; 1 µM): 104±16%; % residual kinase activity (MARK1; 10 µM): 91±5%; % residual kinase activity (TTK; 1 µM): 104±2%; % residual kinase activity (TTK; 10 µM): 91±5%; % residual kinase activity (Aurora B; 1 µM): 119±6%; % residual kinase activity (Aurora B; 10 µM): 92±15%; % residual kinase activity (ABL; 1 µM): 85±4%; % residual kinase activity (ABL; 10 µM): 68±16%; % residual kinase activity (ULK1; 1 µM): 87±10%; % residual kinase activity (ULK1; 10 µM): 89±13%; % residual kinase activity (Src; 1 µM): 107±4%; % residual kinase activity (Src; 10 µM): 84±13%; % residual kinase activity (TESK1; 1 µM): 109±3%; % residual kinase activity (TESK1; 10 µM): 77±10%; % residual kinase activity (MARK4; 1 µM): 68±8%; % residual kinase activity (MARK4; 10 µM): 59±9%; % residual kinase activity (RIPK2; 1 µM): 128±5%; % residual kinase activity (RIPK2; 10 µM): 120±3%; % residual kinase activity (BTK; 1 µM): 113±1%; % residual kinase activity (BTK; 10 µM): 73±2%; % residual kinase activity (ERK5; 1 µM): 120±9%; % residual kinase activity (ERK5; 10 µM): 114±5%; % residual kinase activity (MKK1; 1 µM): 106±2%; % residual kinase activity (MKK1; 10 µM): 114±17%; % residual kinase activity (PKCz; 1 µM): 80±11%; % residual kinase activity (PKCz; 10 µM): 122±28%; % residual kinase activity (p38b MAPK; 1 µM): 124±1%; % residual kinase activity (p38b MAPK; 10 µM): 124±0%; % residual kinase activity (Lck; 1 µM): 112±13%; % residual kinase activity (Lck; 10 µM): 127±14%; % residual kinase activity (PKBa; 1 µM): 104±1%; % residual kinase activity (PKBa; 10 µM): 91±4%; % residual kinase activity (MNK1; 1 µM): 78±19%; % residual kinase activity (MNK1; 10 µM): 87±2%; % residual kinase activity (MST2; 1 µM): 115±4%; % residual kinase activity (MST2; 10 µM): 113±2%; % residual kinase activity (Aurora A; 1 µM): 73±19%; % residual kinase activity (Aurora A; 10 µM): 65±1%; % residual kinase activity (CAMKKb; 1 µM): 115±10%; % residual kinase activity (CAMKKb; 10 µM): 102±9%; % residual kinase activity (MAPKAP-K3; 1 µM): 96±26%; % residual kinase activity (MAPKAP-K3; 10 µM): 72±8%; % residual kinase activity (MKK2; 1 µM): 126±2%; % residual kinase activity (MKK2; 10 µM): 81±27%; % residual kinase activity (IRAK4; 1 µM): 127±0%; % residual kinase activity (IRAK4; 10 µM): 127±11%; % residual kinase activity (DYRK3; 1 µM): 113±6%; % residual kinase activity (DYRK3; 10 µM): 56±15%; % residual kinase activity (p38d MAPK; 1 µM): 95±1%; % residual kinase activity (p38d MAPK; 10 µM): 112±2%; % residual kinase activity (HIPK2; 1 µM): 90±14%; % residual kinase activity (HIPK2; 10 µM): 91±4%; % residual kinase activity (EF2K; 1 µM): 104±13%; % residual kinase activity (EF2K; 10 µM): 56±2%; % residual kinase activity (EPH-B3; 1 µM): 88±6%; % residual kinase activity (EPH-B3; 10 µM): 84±6%; % residual kinase activity (TBK1; 1 µM): 119±10%; % residual kinase activity (TBK1; 10 µM): 94±3%; % residual kinase activity (VEG-FR; 1 µM): 113±10%; % residual kinase activity (VEG-FR; 10 µM): 88±28%; % residual kinase activity (IRR; 1 µM): 105±5%; % residual kinase activity (IRR; 10 µM): 95±4%; % residual kinase activity (MST4; 1 µM): 63±10%; % residual kinase activity (MST4; 10 µM): 63±0%; % residual kinase activity (CHK2; 1 µM): 106±1%; % residual kinase activity (CHK2; 10 µM): 68±6%; % residual kinase activity (OSR1; 1 µM): 106±9%; % residual kinase activity (OSR1; 10 µM): 98±3%; % residual kinase activity (p38g MAPK; 1 µM): 100±11%; % residual kinase activity (p38g MAPK; 10 µM): 100±6%; % residual kinase activity (MARK2; 1 µM): 103±8%; % residual kinase activity (MARK2; 10 µM): 89±15%; % residual kinase activity (PHK; 1 µM): 97±3%; % residual kinase activity (PHK; 10 µM): 107±2%; % residual kinase activity (DAPK1; 1 µM): 131±8%; % residual kinase activity (DAPK1; 10 µM): 159±11%
